The text below walks through data of ChEMBL document CHEMBL4340509, “Synthesis and evaluation of novel GSK-3β inhibitors as multifunctional agents against Alzheimer's disease” (Eur J Med Chem, 2019).

Activity calls are given as the source filed them. The calls are words filed in the database; no cut-off is given here.

The target in data set [1] is T1, Glycogen synthase kinase-3 beta (Homo sapiens, UniProt P49841). The experiment in a line: Inhibition of GSK-3beta (unknown origin) using FAM-labeled peptide as substrate preincubated for 10 mins followed by substrate addition by caliper assay.
Target sequence in this assay (P49841 whole entry): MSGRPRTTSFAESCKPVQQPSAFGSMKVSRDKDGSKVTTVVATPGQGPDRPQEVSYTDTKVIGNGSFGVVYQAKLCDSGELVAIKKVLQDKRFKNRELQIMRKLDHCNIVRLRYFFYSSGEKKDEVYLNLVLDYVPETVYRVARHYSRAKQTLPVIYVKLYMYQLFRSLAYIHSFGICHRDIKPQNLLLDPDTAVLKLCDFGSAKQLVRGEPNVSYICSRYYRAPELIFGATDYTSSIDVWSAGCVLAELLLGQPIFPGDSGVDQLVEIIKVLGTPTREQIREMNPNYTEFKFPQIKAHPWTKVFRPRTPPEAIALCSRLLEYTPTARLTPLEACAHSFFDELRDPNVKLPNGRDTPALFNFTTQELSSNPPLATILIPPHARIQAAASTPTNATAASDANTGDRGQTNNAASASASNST
A short description of data set [2]: Metal chelating activity assessed as Na+-compound complex formation at 20 uM in the presence of NaCl after 30 mins by UV-vis spectrophotometric analysis.
Data set [3] in a line: Metal chelating activity assessed as K+-compound complex formation at 20 uM in the presence of KCl after 30 mins by UV-vis spectrophotometric analysis.
Data set [4] can be described thus: Metal chelating activity assessed as compound-Ca2+ complex formation at 20 uM in the presence of CaCl2 after 30 mins by UV-visible spectrophotometric analysis.
The nature of data set [5]: Metal chelating activity assessed as compound-Fe2+ complex formation at 20 uM in the presence of FeSO4 after 30 mins by UV-visible spectrophotometric analysis.
Data set [6] in a line: Metal chelating activity assessed as compound-Mg2+ complex formation at 20 uM in the presence of MgCl2 after 30 mins by UV-visible spectrophotometric analysis.
The nature of data set [7]: Metal chelating activity assessed as compound-Zn2+ complex formation at 20 uM in presence of ZnCl2 after 30 mins by UV-visible spectrophotometric analysis.
Data set [8] deals with Amyloid-beta precursor protein (Homo sapiens) (UniProt P05067). The experiment in a line: Inhibition of human HFIP-pretreated amyloid beta (1 to 42) self aggregation at 40 uM after 24 hrs by ThT-based fluorometric method relative to control.
Chain of Amyloid-beta precursor protein (Homo sapiens) (P05067 whole entry): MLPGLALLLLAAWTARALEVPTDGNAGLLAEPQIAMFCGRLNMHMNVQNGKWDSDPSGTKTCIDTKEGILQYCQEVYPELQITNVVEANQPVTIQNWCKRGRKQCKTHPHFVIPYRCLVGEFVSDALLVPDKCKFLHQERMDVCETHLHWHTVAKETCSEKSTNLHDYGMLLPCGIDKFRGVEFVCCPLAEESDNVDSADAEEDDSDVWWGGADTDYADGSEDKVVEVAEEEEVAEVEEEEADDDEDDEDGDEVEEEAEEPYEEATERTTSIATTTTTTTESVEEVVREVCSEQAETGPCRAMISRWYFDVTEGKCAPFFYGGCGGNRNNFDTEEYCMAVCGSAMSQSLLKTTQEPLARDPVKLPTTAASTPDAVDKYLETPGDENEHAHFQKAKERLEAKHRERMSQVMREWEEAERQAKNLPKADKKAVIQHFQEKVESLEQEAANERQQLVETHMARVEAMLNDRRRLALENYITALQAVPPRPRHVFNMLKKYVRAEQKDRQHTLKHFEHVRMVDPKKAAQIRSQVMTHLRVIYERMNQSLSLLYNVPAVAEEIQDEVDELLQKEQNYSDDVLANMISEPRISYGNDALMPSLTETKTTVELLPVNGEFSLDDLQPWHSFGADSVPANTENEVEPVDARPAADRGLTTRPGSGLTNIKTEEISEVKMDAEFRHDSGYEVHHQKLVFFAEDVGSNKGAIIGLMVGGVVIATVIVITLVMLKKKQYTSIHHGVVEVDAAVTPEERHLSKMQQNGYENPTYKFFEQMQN
For data set [9] the target is unchanged. The experiment in a line: Disaggregation of HFIP-pretreated human amyloid beta (1 to 42) preformed fibrils at 40 uM after 24 hrs by ThT-based fluorometric method relative to control.
Data set [10] can be described thus: Inhibition of Cu2+-induced HFIP pretreated human amyloid beta (1 to 42) aggregation at 40 uM measured after 24 hrs by ThT-based fluorescence assay relative to control.
Data set [11] is described as follows: Disaggregation of Cu2+ induced human HFIP-pretreated amyloid beta (1 to 42) preformed fibrils at 40 uM measured after 24 hrs by ThT-based fluorescence assay relative to control.
Data set [12] is described as follows: Metal chelating activity assessed as inhibition of Cu(II)/ascorbate-induced ROS production by measuring fluorescence intensity at 100 uM measured at 20 secs interval for 1000 secs by fluorescence assay (reference value: 10 to 52).
Data set [13] can be described thus: Antioxidant activity assessed as ABTS radical scavenging activity incubated for 6 mins. It counts as functional.
A short description of data set [14]: Potency index, ratio of trolox IC50 to test compound IC50 for ABTS radical scavenging activity. It counts as functional.
In data set [15] the test system is SH-SY5Y. Description: Cytotoxicity against human SH-SY5Y cells measured after 24 hrs by MTT assay. Format: cell-based.
The test system of data set [16] is PC-12. Description: Cytotoxicity against rat PC12 cells measured after 24 hrs by MTT assay. Particulars: PC-12, 24 h. It counts as cell-based.
The test system of data set [17] is SH-SY5Y. The experiment in a line: Neuroprotective activity against H2O2-induced oxidative damage in human SH-SY5Y cells assessed as increase in cell viability measured after 24 hrs by MTT assay. Format: functional, cell-based.
The subject of data set [18] is SH-SY5Y. Description: Neuroprotective activity against H2O2-induced oxidative damage in human SH-SY5Y cells assessed as cell viability at 10 uM measured after 24 hrs by MTT assay relative to control. It counts as functional. The conditions noted are these: read-out: Activity.
Data set [19] concerns PC-12. Description: Neuroprotective activity against H2O2-induced oxidative damage in rat PC12 cells assessed as cell viability at 10 uM measured after 24 hrs by MTT assay relative to control. It counts as functional. The conditions noted are these: PC-12, 24 h, read-out: Activity.
Data set [20] has as its system SH-SY5Y. Description: Neuroprotective activity against amyloid beta (1 to 42) (unknown origin)-induced cytotoxicity in SH-SY5Y cells assessed as cell viability at 2 uM measured after 24 hrs by MTT assay (reference value: 78%). It counts as functional. The conditions noted are these: Homo sapiens.
The target of data set [21] is T1, Glycogen synthase kinase-3 beta. The experiment in a line: Inhibition of GSK3bbeta in human SH-SY5Y cells assessed as reduction in human amyloid beta (25 to 35) peptide-induced tau hyperphosphorylation at Ser396 residue at 25 uM preincubated for 1 hr followed by amyloid beta-stimulation and measured after 6 hrs by Western blot analysis relative to control. Format: cell-based.
Target sequence in this assay (P49841 whole entry, looked up): as the sequence (P49841 whole entry) above

The subject of data set [22] is SH-SY5Y. Description: Cytotoxicity against human SH-SY5Y cells at 2 uM in the presence of CuCl2 measured after 24 hrs by MTT assay. It counts as cell-based.
Data set [23] concerns SH-SY5Y. Description: Neuroprotective activity against Cu2+-mediated amyloid beta (1 to 42) (unknown origin)-induced cytotoxicity in human SH-SY5Y cells assessed as cell viability at 2 uM measured after 24 hrs by MTT assay (reference value: 71%). The conditions noted are these: read-out: Activity. It counts as functional.
In data set [24] the target is T1, Glycogen synthase kinase-3 beta. The experiment in a line: Inhibition of GSK3bbeta in human SH-SY5Y cells assessed as reduction in human amyloid beta (25 to 35) peptide-induced tau hyperphosphorylation at Ser396 residue preincubated for 1 hr followed by amyloid beta-stimulation and measured after 6 hrs by Western blot analysis. It counts as cell-based.
Target sequence in this assay (P49841 whole entry, looked up): as the sequence (P49841 whole entry) above
Data set [25] can be described thus: Metal chelating activity assessed as compound-Cu2+ complex formation by measuring blue shift in maximum absorption at 20 uM in presence of CuCl2 after 30 mins by UV-visible spectrophotometric analysis (reference value: 248 nanometer).
The nature of data set [26]: Metal chelating activity assessed as compound-Al3+ complex formation by measuring blue shift in maximum absorption at 20 uM in the presence of AlCl3 after 30 mins by UV-visible spectrophotometric analysis (reference value: 248 to 407 nanometer).
A short description of data set [27]: Potency index, ratio of test compound effect to clioquinol effect for disaggregation of Cu2+ induced human HFIP-pretreated amyloid beta (1 to 42) preformed fibrils.
Data set [28] has as its target T1, Glycogen synthase kinase-3 beta. Description: Inhibition of GSK-3beta (unknown origin) at 1 uM using FAM-labeled peptide as substrate preincubated for 10 mins followed by substrate addition by caliper assay relative to control.
Target sequence in this assay (P49841 whole entry, looked up): as the sequence (P49841 whole entry) above
A short description of data set [29]: Metal chelating activity assessed as compound-Cu2+ complex formation by measuring shift in maximum absorption wavelength at 20 uM in presence of CuCl2 after 30 mins by UV-visible spectrophotometric analysis (reference value: 327 nanometer).
A short description of data set [30]: Metal chelating activity assessed as compound-Al3+ complex formation at 20 uM in the presence of AlCl3 after 30 mins by UV-visible spectrophotometric analysis.
Data set [31] can be described thus: Metal chelating activity assessed as compound-Cu2+ complex formation by measuring blue shift in maximum absorption at 20 uM in presence of CuCl2 after 30 mins by UV-visible spectrophotometric analysis (reference value: 244 nanometer).
Data set [32] can be described thus: Metal chelating activity assessed as compound-Al3+ complex formation by measuring blue shift in maximum absorption at 20 uM in the presence of AlCl3 after 30 mins by UV-visible spectrophotometric analysis (reference value: 407 nanometer).
The subject of data set [33] is SH-SY5Y. The experiment in a line: Neuroprotective activity against Cu2+-mediated amyloid beta (1 to 42) (unknown origin)-induced cytotoxicity in human SH-SY5Y cells assessed as increase in cell viability at 2 uM measured after 24 hrs by MTT assay. Format: functional, cell-based.
Data set [34] has as its target T1, Glycogen synthase kinase-3 beta. The experiment in a line: Inhibition of GSK3bbeta in human SH-SY5Y cells assessed as reduction in human amyloid beta (25 to 35) peptide-induced tau hyperphosphorylation at Ser396 residue at […] preincubated for 1 hr followed by amyloid beta-stimulation and measured after 6 hrs by Western blot analysis. Format: cell-based.
Target sequence in this assay (P49841 whole entry, looked up): as the sequence (P49841 whole entry) above
Data set [35] in a line: Metal chelating activity assessed as compound-Cu2+ complex formation by measuring shift in maximum absorption wavelength at 20 uM in presence of CuCl2 after 30 mins by UV-visible spectrophotometric analysis (reference value: 338 nanometer).
Data set [36] can be described thus: Metal chelating activity assessed as compound-Cu2+ complex formation at 20 uM in presence of CuCl2 after 30 mins by UV-visible spectrophotometric analysis.
Data set [37] can be described thus: Metal chelating activity assessed as compound-Cu2+ complex formation by measuring shift in maximum absorption wavelength at 20 uM in presence of CuCl2 after 30 mins by UV-visible spectrophotometric analysis (reference value: 311 nanometer).
The nature of data set [38]: Metal chelating activity assessed as compound-Cu2+ complex formation by measuring shift in maximum absorption wavelength at 20 uM in presence of CuCl2 after 30 mins by UV-visible spectrophotometric analysis (reference value: 326 nanometer).

In the case of `Nc1ncc(-c2ccccc2)cc1/N=C/c1ccnc(NC(=O)C2CC2)c1`, the 50% inhibitory concentration (IC50) in data set [1] amounted to 49 nM; in data set [13] it was 7.3 µM; with SH-SY5Y [15] it was 158 µM; in the data set with PC-12 [16], 83.2 µM. In addition, the result in [2], in data set [3], in [4], in [5], in data set [6] and in data set [7] was inactive. In addition, the outcome (in data set [9]; in the data set with SH-SY5Y [20]) was inactive. Moreover, the inhibition entry in data set [8] is “inactive”. Besides, the inhibition in [10] is 63%; in data set [21], below 50%; in data set [24], “Dose-dependent effect”. Besides, the Activity is 66.1% in [11]; “Dose-dependent effect” with SH-SY5Y [17]; “Non-Toxic” in the data set on SH-SY5Y [22]; 244 nm in data set [25]; 242 to 339 nm in [26]. Moreover, in data set [12], the Flu intensity lay within 53 to 68. In [14], the Ratio IC50 lay in the range of 2 to 4. The results for the viability at 10 µM in the data set on SH-SY5Y [18] and with PC-12 [19] were 92.7% and 71.8%, respectively. For the same compound, in the data set with SH-SY5Y [23], the viability at 2 µM is 93%. Besides, in data set [27], the Ratio is 2.
Turning to `Cc1ccc(-c2cnc(N)c(NCc3ccnc(NC(=O)C4CC4)c3)c2)cc1`, the inhibition in data set [28] is 28%. Besides, the Activity in data set [29] is 422 nm. For the same compound, the result in [2], in data set [3], in data set [4], in data set [30], in data set [5] and in [6] was inactive. The result in data set [7] was inactive.
On to `Nc1ncc(-c2ccncc2)cc1/N=C/c1ccnc(NC(=O)C2CC2)c1`, for which the half-maximal inhibitory concentration (IC50) is 38 nM in [1], 3.44 µM in data set [13], above 200 µM with SH-SY5Y [15] and 161 µM in the data set with PC-12 [16]. Further, the outcome in data set [2], in data set [3], in data set [4], in data set [5], in data set [6] and in data set [7] was inactive. For the same compound, the outcome (in data set [9]; in the data set with SH-SY5Y [20]) was inactive. Further, in data set [8], the inhibition result is “inactive”. In addition, the results for the inhibition in data set [10], in [21] and in [24] were 33.8%, below 50% and “Dose-dependent effect”, respectively. For the same compound, the Activity in [11] is 50.9%; in the data set on SH-SY5Y [17], “Dose-dependent effect”; with SH-SY5Y [22] it was “Non-Toxic”; in data set [31], 241 nm; in data set [32], 378 nm. For the same compound, in data set [12], the Flu intensity lay in the range of 33 to 54. The Ratio IC50 in [14] was in the range of 2 to 4. The results for the viability at 10 µM in the data set with SH-SY5Y [18] and in the data set with PC-12 [19] were 92% and 76.4%, respectively. The result in the data set on SH-SY5Y [33] was Active.
Consider `[Cl-].[Li+]`, for which the inhibition result in data set [34] was “Active”.
As for `Cc1csc(-c2cnc(N)c(NCc3ccnc(NC(=O)C4CC4)c3)c2)c1`, the inhibition in data set [28] came out at 17%. In addition, the result in data set [2], in data set [3], in [4], in data set [30], in data set [5] and in data set [6] was inactive. Further, the result in [7] was inactive. Moreover, the Activity in [35] amounted to 440 nm.
Take `Nc1ncccc1/N=C/c1ccnc(NC(=O)C2CC2)c1`: the IC50 in data set [1] is 71 nM; in [13], 3.88 µM; with SH-SY5Y [15], above 200 µM; with PC-12 [16], 152 µM. Besides, the result in data set [2], in data set [3], in data set [4], in data set [36], in data set [30] and in data set [5] was inactive. The result (in [6]; in data set [7]; in data set [9]; with SH-SY5Y [20]) was inactive. Besides, the inhibition entry in [8] is “inactive”. Moreover, the inhibition in data set [10] is 24.3%; in [21] it was below 50%; in data set [24], “Dose-dependent effect”. Moreover, the results for the Activity (in [11]; in the data set on SH-SY5Y [17]; in the data set with SH-SY5Y [22]) were 42.5%, “Dose-dependent effect” and “Non-Toxic”, respectively. The Flu intensity in [12] lay in the range of 22 to 40. Besides, in data set [14], the Ratio IC50 was in the range of 2 to 4. The viability at 10 µM turned out to be 92.1% in the data set with SH-SY5Y [18] and 72.6% with PC-12 [19]. The outcome in the data set on SH-SY5Y [33] was Active.
`Nc1ncccc1NCc1ccnc(NC(=O)C2CC2)c1` came in with an inhibition in [28] of 33%. The result in [2], in [3], in [4], in [30], in [5] and in [6] was inactive. For the same compound, the outcome in [7] was inactive. Further, the Activity in data set [37] is 402 nm.
Compound `Nc1ncc(-c2ccccc2)cc1NCc1ccnc(NC(=O)C2CC2)c1` showed an inhibition in [28] of 27%. Besides, the result in [2], in data set [3], in data set [4], in [30], in [5] and in [6] was inactive. Further, in data set [7], the result was inactive. Also, the Activity in data set [38] is 422 nm.
